Measured values reported in patent publication US20110086759A1, “CHEMICAL COMPOUNDS” (SYNGENTA CROP PROTECTION, INC., priority 2007, published 2011).

Tests used:
Format in all cases: in vivo
[1] = system: Alopecurus myosuroides (ALOMY); test: Pre-emergence biological efficacy, glasshouse pot test; conditions: 312 h, pre-emergence, 1,000 g/ha, evaluated after 13 days (100=total damage; 0=no damage), read-out: Percentage damage ALOMY
How it was run: (§1)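 Visual phytotoxicity (0 no damage, 100 total damage) assessed 13 d after treatment. Soil-sown pots sprayed one day post-sowing; dose 1000 or 250 g/ha; formulation in acetone/water 50:50, 0.5% Tween 20.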

[2] = system: Amaranthus retoflexus (AMARE); test: as above; conditions: Amaranthus retroflexus, 312 h; pre-emergence, 1,000 g/ha, evaluated after 13 days (100=total damage; 0=no damage); read-out: Percentage damage AMARE
How it was run: as §1

[3] = system: Echinochloa crus-galli (ECHCG); test: as above; conditions: 312 h, pre-emergence, 1,000 g/ha, evaluated after 13 days (100=total damage; 0=no damage), read-out: Percentage damage ECHCG
How it was run: as §1

[4] = system: Ipomea hederaceae (IPOHE); test: as above; conditions: Ipomoea hederacea, 312 h; pre-emergence, 1,000 g/ha, evaluated after 13 days (100=total damage; 0=no damage); read-out: Percentage damage IPOHE
How it was run: as §1

Setaria faberi (SETFA) [5] = test: as above; conditions: 312 h, pre-emergence, 1,000 g/ha, evaluated after 13 days (100=total damage; 0=no damage), read-out: Percentage damage SETFA
How it was run: as §1

Solanum nigrum (SOLNI) [6] = test: as above; conditions: 312 h, pre-emergence, 1,000 g/ha, evaluated after 13 days (100=total damage; 0=no damage), read-out: Percentage damage SOLNI
How it was run: as §1

[7] = system: Alopecurus myosuroides (ALOMY); test: Post-emergence biological efficacy, glasshouse pot test; conditions: 312 h, post-emergence, 1,000 g/ha, evaluated after 13 days (100=total damage; 0=no damage), read-out: Percentage damage caused to weed species, ALOMY
How it was run: (§2)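 Pot-grown weeds were sprayed 8 days after sowing with test compound in acetone/water (50:50) with 0.5% Tween 20 at 1000 or 250 g/ha. Glasshouse at 24/16° C day/night, 14 h light, 65% humidity. Damage scored 0-100 (100 = total damage) after 13 days.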

[8] = system: Amaranthus retoflexus (AMARE); test: as above; conditions: Amaranthus retroflexus, 312 h; post-emergence, 1,000 g/ha, evaluated after 13 days (100=total damage; 0=no damage); read-out: Percentage damage caused to weed species, AMARE
How it was run: as §2

[9] = system: Echinochloa crus-galli (ECHCG); test: as above; conditions: 312 h, post-emergence, 1,000 g/ha, evaluated after 13 days (100=total damage; 0=no damage), read-out: Percentage damage caused to weed species, ECHCG
How it was run: as §2

[10] = system: Ipomea hederaceae (IPOHE); test: as above; conditions: Ipomoea hederacea, 312 h; post-emergence, 1,000 g/ha, evaluated after 13 days (100=total damage; 0=no damage); read-out: Percentage damage caused to weed species, IPOHE
How it was run: as §2

Setaria faberi (SETFA) [11] = test: as above; conditions: 312 h, post-emergence, 1,000 g/ha, evaluated after 13 days (100=total damage; 0=no damage), read-out: Percentage damage caused to weed species, SETFA
How it was run: as §2

Solanum nigrum (SOLNI) [12] = test: as above; conditions: 312 h, post-emergence, 1,000 g/ha, evaluated after 13 days (100=total damage; 0=no damage), read-out: Percentage damage caused to weed species, SOLNI
How it was run: as §2

Row | SMILES | pest or weed control at 1000 g/ha [1] [%] | pest or weed control at 1000 g/ha [2] [%] | pest or weed control at 1000 g/ha [3] [%] | pest or weed control at 1000 g/ha [4] [%] | pest or weed control at 1000 g/ha (Setaria faberi (SETFA) [5]) [%] | pest or weed control at 1000 g/ha (Solanum nigrum (SOLNI) [6]) [%] | pest or weed control at 1000 g/ha [7] [%] | pest or weed control at 1000 g/ha [8] [%] | pest or weed control at 1000 g/ha [9] [%] | pest or weed control at 1000 g/ha [10] [%] | pest or weed control at 1000 g/ha (Setaria faberi (SETFA) [11]) [%] | pest or weed control at 1000 g/ha (Solanum nigrum (SOLNI) [12]) [%]
1 | COC(=O)c1nc(C2CC2)nc(NC(C)Cc2c[nH]c3ccccc23)c1Cl (stereo not drawn) [Compound 4-231, 5-Chloro-2-cyclopropyl-4-[2-(indol-3-yl)-1-methyl-ethylamino]-6-methoxy-carbonylpyrimidine] | 0 | 30 | 0 | 70 | 0 | 10 | 10 | 90 | 10 | 60 | 30 | 70
2 | COC(=O)c1nc(C2CC2)nc(NCC(C)c2ccccc2)c1Cl (stereo not drawn) [Compound 4-232, 5-Chloro-2-cyclopropyl-6-methoxycarbonyl-4-[2-(phenyl)propyl-amino]-pyrimidine] | 10 | 90 | 30 | 50 | 30 | 80 | 20 | 100 | 30 | 100 | 50 | 70
3 | COC(=O)c1nc(C2CC2)nc(NCC(C)c2ccc(Cl)cc2)c1Cl (stereo not drawn) [Compound 4-233, 5-Chloro-4-[2-(4-chlorophenyl)propyl-amino]-2-cyclopropyl-6-methoxycarbonyl-pyrimidine] | 0 | 40 | 0 | 10 | 0 | 20 | 10 | 100 | 20 | 60 | 50 | 80
4 | COC(=O)c1nc(C2CC2)nc(NCC(F)c2ccccc2Br)c1Cl (stereo not drawn) [Compound 4-234, 4-[2-(2-Bromophenyl)-2-fluoro-ethylamino]-5-chloro-2-cyclopropyl-6-methoxycarbonyl-pyrimidine] | 0 | 10 | 0 | 0 | 0 | 0 | 0 | 90 | 20 | 60 | 30 | 70
5 | COC(=O)c1nc(C2CC2)nc(NCC(F)c2ccc(Br)cc2)c1Cl (stereo not drawn) [Compound 4-236, 4-[2-(4-Bromophenyl)-2-fluoro-ethylamino]-5-chloro-2-cyclopropyl-6-methoxycarbonyl-pyrimidine] | 0 | 0 | 0 | 0 | 0 | 60 | 0 | 100 | 0 | 60 | 40 | 70
6 | COC(=O)c1nc(C2CC2)nc(NCC(F)c2cccc(C(F)(F)F)c2)c1Cl (stereo not drawn) [Compound 4-237, 5-Chloro-2-cyclopropyl-4-[2-fluoro-2-(3-trifluoromethyl-phenyl)ethylamino]-6-methoxy-carbonylpyrimidine] | 0 | 30 | 0 | 10 | 0 | 0 | 0 | 100 | 30 | 60 | 40 | 70
7 | COC(=O)c1nc(C2CC2)nc(NCC(F)c2ccc(F)cc2F)c1Cl (stereo not drawn) [Compound 4-238, 5-Chloro-2-cyclopropyl-4-[2-(2,4-difluoro-phenyl)-2-fluoro-ethylamino]-6-methoxycarbonyl-pyrimidine] | 0 | 10 | 0 | 0 | 0 | 50 | 10 | 90 | 0 | 60 | 0 | 70
8 | COC(=O)c1nc(C2CC2)nc(NCC(F)c2ccc(Cl)cc2Cl)c1Cl (stereo not drawn) [Compound 4-239, 5-Chloro-2-cyclopropyl-4-[2-(2,4-dichlorophenyl)-2-fluoro-ethylamino]-6-methoxycarbonyl-pyrimidine] | 0 | 20 | 0 | 10 | 0 | 0 | 0 | 90 | 0 | 50 | 20 | 60
9 | COC(=O)c1nc(C2CC2)nc(NCC(F)c2ccc(Br)cc2F)c1Cl (stereo not drawn) [Compound 4-240, 4-[2-(4-Bromo-2-fluorophenyl)-2-fluoro-ethylamino]-5-chloro-2-cyclopropyl-6-methoxycarbonyl-pyrimidine] | 0 | 30 | 0 | 0 | 0 | 10 | 10 | 100 | 0 | 60 | 30 | 70
10 | COC(=O)c1nc(C2CC2)nc(NCC(C)(F)c2cccc(Cl)c2)c1Cl (stereo not drawn) [Compound 4-241, 5-Chloro-4-[2-(3-chlorophenyl)-2-fluoro-propylamino]-2-cyclopropyl-6-methoxycarbonyl-pyrimidine] | 0 | 30 | 0 | 0 | 0 | 0 | 0 | 60 | 10 | 60 | 30 | 70
